A short description of the data set: Solubility. Type of data set: physicochemical. Particulars: for solubility in organic solvents: acetone, ethyl acetate, ethyl ether, chloroform, etc.

This is an account of results in US3939043A, “Antibiotics designated XK-88 series and process for production thereof” (Abbott Laboratories, priority 1973, dated 1976).

Molecules are shown by their SMILES.

`NC1CC(N)C(OC2OC(CO)C(O)C(O)C2N)C(O)C1OC1OCC(O)C(O)C1N` (stereo not drawn) [sulfate of XK-88-1]: the “solubility in organic solvents” value is recorded as “insoluble”; the “solubility in methanol and ethanol” value is on record as “poorly soluble”; the solubility in water entry is given as “very soluble”.

Take `NCC1CC(O)C(N)C(OC2C(N)CC(N)C(O)C2O)O1` (stereo not drawn) [sulfate of XK-88-2]: the “solubility in organic solvents” value is given as “insoluble”; the “solubility in methanol and ethanol” value is listed as “poorly soluble”; the solubility in water entry is “very soluble”.

For `NCC1OC(OC2C(N)CC(N)C(OC3OCC(O)C(O)C3N)C2O)C(N)C(O)C1O` (stereo not drawn) [sulfate of XK-88-3], the “solubility in organic solvents” value is recorded as “insoluble”; the “solubility in methanol and ethanol” value was “poorly soluble”; the solubility in water entry was “very soluble”.

For the compound `COC1COC(OC2C(N)CC(N)C(OC3OC(CN)CC(O)C3N)C2O)C(N)C1N` (stereo not drawn) [sulfate of XK-88-5], the “solubility in organic solvents” value is recorded as “insoluble”; the “solubility in methanol and ethanol” value is on record as “poorly soluble”; the solubility in water entry is “very soluble”.
